According to patent US20040029823A1, “Antisense oligonucleotide compositions and methods for the modulation of JNK proteins” (priority 1997, published 2004):
Strand notation (5' to 3'): a small letter for the sugar, then the base; units joined by * are phosphorothioate-linked, units joined directly phosphodiester-linked; [ ] holds rarer units or linkages, { } end groups; capitals alone tell only the bases. e = 2'-O-(2-methoxyethyl) (MOE); [5mC] = 5-methylcytosine; d = 2'-deoxy (DNA)

Experiments:
JNK2 mRNA = assay: Northern assay of JNK2 mRNA expression in A549 cells; format: cell-based, human; conditions: JNK2 mRNA, chemically modified oligonucleotides
Method: (§1) In order to evaluate the activity of potential JNK-modulating oligonucleotides, human lung carcinoma cell line A549 (American Type Culture Collection, Rockville, Md. No. ATCC CCL-185) cells or other cell lines as indicated in the Examples, were grown and treated with oligonucleotides or control solutions as detailed below. After harvesting, cellular extracts were prepared and examined for specific JNK mRNA levels or JNK protein levels (i.e., Northern or Western assays, respectively). In all cases, “% expression” refers to the amount of JNK-specific signal in an oligonucleotide-treated cell relative to an untreated cell (or a cell treated with a control solution that lacks oligonucleotide), and “% inhibition” is calculated as
(§2) 100%−% Expression =% Inhibition.
(§3) Northern Assays: The mRNA expression of each JNK protein was determined by using a nucleic acid probe specifically hybridizable thereto. Nucleic acid probes specific for JNK1, JNK2 and JNK3 are described in Examples 3, 4 and 5, respectively. The probes were radiolabelled by means well known in the art (see, e.g., Short Protocols in Molecular Biology, 2nd Ed., Ausubel et al., Eds., John Wiley & Sons, New York, 1992, pages 3-11 to 2-3-44 and 4-17 to 4-18; Ruth, Chapter 6 In: Methods in Molecular Biology, Vol. 26: Protocols for Oligonucleotide Conjugates, Agrawal, ed., Humana Press Inc., Totowa, N.J., 1994, pages 167-185; and Chapter 10 In: Molecular Cloning: A Laboratory Manual, 2nd Ed., Sambrook et al., Eds., pages 10.1-10.70). The blots were stripped and reprobed with a ^32P-labeled glyceraldehyde 3-phosphate dehydrogenase (G3PDH) probe (Clontech Laboratories, Inc., Palo Alto, Calif.) in order to confirm equal loading of RNA and to allow the levels of JNK transcripts to be normalized with regard to the G3PDH signals.
(§4) A549 cells were grown in T-75 flasks until 80-90% confluent. At this time, the cells were washed twice with 10 mL of media (DMEM), followed by the addition of 5 mL of DMEM containing 20 μg/mL of LIPOFECTIN™ (i.e., 1:1 (w/w) DOTMA/DOPE, Life Technologies, Gaithersburg, Md.; DOTMA=N-[1-(2,3-dioleyoxy)propyl]-N,N,N-trimethylammonium chloride; DOPE=dioleoyl phosphatidylethanolamine). The oligonucleotides were added from a 10 μM stock solution to a final concentration of 400 nM, and the two solutions were mixed by swirling the flasks. As a control, cells were treated with LIPOFECTIN™ without oligonucleotide under the same conditions and for the same times as the oligonucleotide-treated samples. After 4 hours at 37° C., the medium was replaced with fresh DMEM containing 10% serum. The cells were allowed to recover for 18 hours. Total cellular RNA was then extracted in guanidinium, subject to gel electrophoresis and transferred to a filter according to techniques known in the art (see, e.g., Chapter 7 In: Molecular Cloning: A Laboratory Manual, 2nd Ed., Sambrook et al., Eds., pages 7.1-7.87, and Short Protocols in Molecular Biology, 2nd Ed., Ausubel et al., Eds., John Wiley & Sons, New York, 1992, pages 2-24 to 2-30 and 4-14 to 4-29). Filters were typically hybridized overnight to a probe specific for the particular JNK gene of interest in hybridization buffer (25 mM KPO4, pH 7.4; 5×SSC; 5× Denhardt's solution, 100 μg/ml Salmon sperm DNA and 50% formamide) (Alahari et al., Nucl. Acids Res., 1993, 21, 4079). This was followed by two washes with 1×SSC, 0.1% SDS and two washes with 0.25×SSC, 0.1% SDS. Hybridizing bands were visualized by exposure to X-OMAT AR film and quantitated using a PHOSPHORIMAGER™ essentially according to the manufacturer's instructions (Molecular Dynamics, Sunnyvale, Calif.)
B. JNK2-specific probes: In initial screenings of a set of oligonucleotides derived from the JNK2 sequence (Table 9) for biological activity, a cDNA clone of JNK2 (Kallunki et al., Genes & Development, 1994, 8, 2996) was radiolabeled and used as a JNK2-specific probe in Northern blots. […]

JNK1 mRNA = assay: Northern assay of JNK1 mRNA expression in A549 cells; format: cell-based, human; conditions: for % EXPRESSION: relative to LIPOFECTIN-only control; for Normalized % Control: JNK1 mRNA dose response
Method: as §1, §2, §3, §4
B. JNK1-specific probes: In initial screenings of a set of oligonucleotides derived from the JNK1 sequence (Table 2) for biological activity, a cDNA clone of JNK1 (Derijard et al., Cell, 1994, 76, 1025) was radiolabeled and used as a JNK1-specific probe in Northern blots. […]

[1] = JNK1 mRNA, A549 cells, 400 nM oligonucleotide
[2] = JNK1 mRNA, A549 cells, 400 nM oligonucleotide, 100% - % expression

Row | Substance | % EXPRESSION (JNK1 mRNA; [1]) | % INHIBITION (JNK1 mRNA; [2]) | also measured
1 | 15355 (antisense eG*eT*e[5mC]*e[5mC]*eG*eG*eG*e[5mC]*e[5mC]*eA*eG*dG*dC*dC*dA*dA*dA*dG*dT*dC) [compound 15355] |  |  | Normalized % Control (JNK2 mRNA; dose 100 nM): 61.3%; Normalized % Control (JNK2 mRNA; dose 400 nM): 29.1%
2 | 11986 (antisense AGTCATCTACAGCAGCCCAG; DNA, all phosphorothioate, methylation of C not given here) [compound 11986] | 90% | 10% | 
3 | 12553 (antisense TTTGGTGGTGGAGCTTCTGC; DNA, all phosphorothioate, methylation of C not given here) [compound 12553] | 25% |  | 
4 | 11979 (antisense CTCCTCCAAGTCCATAACTT; DNA, all phosphorothioate, methylation of C not given here) [compound 11979] | 90% | 10% | 
5 | 11984 (antisense CTGTATCAGAGGCCAAAGTC; DNA, all phosphorothioate, methylation of C not given here) [compound 11984] | 53% | 47% | 
6 | 11978 (antisense ATTCTTTCCACTCTTCTATT; DNA, all phosphorothioate, methylation of C not given here) [compound 11978] | 85% | 15% | 
7 | 11981 (antisense CTGTGCTAAAGGAGAGGGCT; DNA, all phosphorothioate, methylation of C not given here) [compound 11981] | 62% | 28% | 
8 | 12554 (antisense GGCTGCCCCCGTATAACTCC; DNA, all phosphorothioate, methylation of C not given here) [compound 12554] | 11% |  | 
9 | 11982 (antisense ATGATGGATGCTGAGAGCCA; DNA, all phosphorothioate, methylation of C not given here) [compound 11982] | 13% |  | 
10 | 12556 (antisense AGGCCAAAGTCGGATCTGTT; DNA, all phosphorothioate, methylation of C not given here) [compound 12556] | 41% |  | 
11 | 12550 (antisense GGATGACCTCGGGTGCTCTG; DNA, all phosphorothioate, methylation of C not given here) [compound 12550] | 40% |  | 
12 | CTC-TCT-GTA-GGC-CCG-CTT-GG (CTCTCTGTAGGCCCGCTTGG; chemistry not given here) [ISIS 12539] |  |  | % INHIBITION (JNK1 mRNA; JNK1 mRNA time course, t=0 h after 4 hour treatment): greater than 85%; % INHIBITION (JNK1 mRNA; JNK1 mRNA time course, t=4 h): about 95%; % INHIBITION (JNK1 mRNA; JNK1 mRNA time course, t=12 h): greater than or equal to 80%; % INHIBITION (JNK1 mRNA; JNK1 mRNA time course, t=48 h): greater than or equal to 80%; % INHIBITION (JNK1 mRNA; JNK1 mRNA time course, time 272 h [sic] (t=72 h in text)): ≥ 60%
13 | 12464 (antisense CGGCTTAGCTTCTTGATTGC; DNA, all phosphorothioate, methylation of C not given here) [compound 12464] | 18% |  | 
14 | 12538 (antisense CCCGCTTGGCATGAGTCTGA; chemistry not fully specified) [compound 12538] | 33% |  | 
15 | 14320 (sense CCAAGCGGGCCTACAGAGAG; DNA, all phosphorothioate, methylation of C not given here) [compound 14320] |  |  | Normalized % Control (JNK1 mRNA; 50 nM): 103.6%; Normalized % Control (JNK1 mRNA; 100 nM): 76.3%; Normalized % Control (JNK1 mRNA; 200 nM): 98.9%; Normalized % Control (JNK1 mRNA; 400 nM): 97.1%
16 | 12549 (antisense CGTTCCTGCAGTCCTGGCCA; DNA, all phosphorothioate, methylation of C not given here) [compound 12549] | 28% |  | 
17 | 12548 (antisense ATTTGCATCCATGAGCTCCA; DNA, all phosphorothioate, methylation of C not given here) [compound 12548] | 5% |  | 
18 | 11983 (antisense GTTGACATTGAAGACACATC; DNA, all phosphorothioate, methylation of C not given here) [compound 11983] | 40% |  | 
19 | 12555 (antisense TGCTAAAGGAGAGGGCTGCC; DNA, all phosphorothioate, methylation of C not given here) [compound 12555] | 27% |  | 
20 | 11980 (antisense CCCGTATAACTCCATTCTTG; DNA, all phosphorothioate, methylation of C not given here) [compound 11980] | 85% | 15% | 
21 | 12551 (antisense CCCATAATGCACCCCACAGA; DNA, all phosphorothioate, methylation of C not given here) [compound 12551] | 52% | 48% | 
22 | 12552 (antisense CGGGTGTTGGAGAGCTTCAT; DNA, all phosphorothioate, methylation of C not given here) [compound 12552] | 34% |  | 
23 | 12557 (antisense CCACCCCCCGATGGCCCAAG; DNA, all phosphorothioate, methylation of C not given here) [compound 12557] | 29% |  | 
24 | 11988 (antisense ATCAATGACTAACCGACTCC; DNA, all phosphorothioate, methylation of C not given here) [compound 11988] | 78% | 22% | 
25 | 11989 (antisense CAAAAATAAGACCACTGAAT; DNA, all phosphorothioate, methylation of C not given here) [compound 11989] | 60% | 40% | 
26 | 11987 (antisense CCATCCCTCCCACCCCCCGA; DNA, all phosphorothioate, methylation of C not given here) [compound 11987] | 47% |  | 
27 | 11985 (antisense TGCTGCTTCTAGACTGCTGT; DNA, all phosphorothioate, methylation of C not given here) [compound 11985] | 47% |  | 
28 | 14321 (CTTTCCGTTGGACCCCTGGG; DNA, all phosphorothioate, methylation of C not given here) [compound 14321] |  |  | Normalized % Control (JNK1 mRNA; 50 nM): 91.8%; Normalized % Control (JNK1 mRNA; 100 nM): 94.1%; Normalized % Control (JNK1 mRNA; 200 nM): 100.2%; Normalized % Control (JNK1 mRNA; 400 nM): 79.2%
29 | 12463 (antisense CACGCTTGCTTCTGCTCATG; DNA, all phosphorothioate, methylation of C not given here) [compound 12463] | 23% |  | 
